US20020052295A1, “Diacyl derivatives of propylene diamine having herbicidal activity” (priority 1999, published 2002)

Assays:
Conditions in all cases: lowest tested rate giving 80% or greater inhibition, approx. 14 days after planting and treating, greenhouse
[1] = system: ABUTH; test: Pre-emergence herbicidal activity on ABUTH (velvetleaf); type: in vivo, Abutilon theophrasti
Summary of the method: (§1)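 GR80 derived from percent inhibition rated ~14 days after sowing. Compound sprayed pre-emergence onto soil in 50:50 acetone/water; rates typically up to 1000 g/ha.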

[2] = system: SOLNI; test: Pre-emergence herbicidal activity on SOLNI (black nightshade); type: in vivo, Solanum nigrum
Summary of the method: as §1

[3] = system: AMARE; test: Pre-emergence herbicidal activity on AMARE (redroot pigweed); type: in vivo, Amaranthus retroflexus
Summary of the method: as §1

[4] = system: DATST; test: Pre-emergence herbicidal activity on DATST (jimsonweed); type: in vivo, Datura stramonium
Summary of the method: as §1

[5] = system: CHEAL; test: Pre-emergence herbicidal activity on CHEAL (common lambsquarters); type: in vivo, Chenopodium album
Summary of the method: as §1

[6] = system: CONAR; test: Pre-emergence herbicidal activity on CONAR (field bindweed); type: in vivo, Convolvulus arvensis
Summary of the method: as §1

[7] = system: POROL; test: Pre-emergence herbicidal activity on POROL (common purslane); type: in vivo, Portulaca oleracea
Summary of the method: as §1

[8] = system: CIRAR; test: Pre-emergence herbicidal activity on CIRAR (canada thistle, seedling); type: in vivo, Cirsium arvense
Summary of the method: as §1

[9] = system: ECHCG; test: Pre-emergence herbicidal activity on ECHCG (barnyardgrass); type: in vivo, Echinochloa crus-galli
Summary of the method: as §1

[10] = system: PANMI; test: Pre-emergence herbicidal activity on PANMI (wild proso millet); type: in vivo, Panicum miliaceum
Summary of the method: as §1

[11] = system: SORHA; test: Pre-emergence herbicidal activity on SORHA (johnsongrass, seedling); type: in vivo, Sorghum halepense
Summary of the method: as §1

[12] = system: SETFA; test: Pre-emergence herbicidal activity on SETFA (giant foxtail); type: in vivo, Setaria faberi
Summary of the method: as §1

[13] = system: PANDI; test: Pre-emergence herbicidal activity on PANDI (fall panicum); type: in vivo, Panicum dichotomiflorum
Summary of the method: as §1

[14] = system: SORVU; test: Pre-emergence herbicidal activity on SORVU (shattercane); type: in vivo, Sorghum vulgare
From the text: All such uses, and the biological activity enabling such uses, are embraced by the term “herbicidal” herein. Tables 15 and 16 summarize results of tests conducted as described below to determine the pre-emergence herbicidal activity, in the form of a GR80 value, of illustrative compounds of this invention. […] Where herbicidal activity was evident but 80% inhibition was not achieved at the highest rate tested (typically 1000 g/ha), an asterisk (*) is shown in the following tables. Herbicidal activity evident in the form of symptoms of phytotoxicity, in the absence of at least 80% inhibition at any rate, is indicated in the tables by “phyto”. A blank cell in the following tables indicates no herbicidal or phytotoxic response at any rate tested.
The pre-emergence tests were conducted by the following procedure. Topsoil was sieved to pass through a 1.27 cm screen. Fertilizer was added to the topsoil and the mixture was then sterilized by heating. The topsoil mixture was placed in a pot and compacted to a depth of 1.0 to 1.25 cm from the top of the pot. Seeds of each of several monocotyledonous and dicotyledonous annual plant species were placed on top of the soil. Additional soil was subsequently placed over the seeds to level-fill the pot. A known amount of each test compound dissolved or suspended in an appropriate organic solvent was diluted with a 50:50 mix of acetone and water and applied to the surface of the soil. After treatment the plants were placed in a greenhouse with a 30/21° C. day/night temperature regime where they received 0.64 cm of overhead irrigation. All subsequent watering consisted of a light overhead mist and/or subirrigation as needed for germination and growth.
Approximately 14 days after planting and treating, the plants were observed and herbicidal efficacy recorded as percent inhibition by comparison with untreated plants.
The plant species usually regarded as weeds which were utilized in the tests are identified in the tables below according to the following legend, in which “d” indicates a dicotyledonous species and “m” a monocotyledonous species. All monocotyledonous species included in the tests herein are grasses.

[15] = system: BRAPP; test: Pre-emergence herbicidal activity on BRAPP (broadleaf signalgrass); type: in vivo, Brachiaria platyphylla
Summary of the method: as §1

[16] = system: DIGSA; test: Pre-emergence herbicidal activity on DIGSA (large crabgrass); type: in vivo, Digitaria sanguinalis
Summary of the method: as §1

CC(CNC(=O)c1cccc(C(F)(F)F)c1)NC(=O)c1cccc(Cl)c1F (centres unmarked) [Example 49]
Pre-emergence activity (GR80) on ABUTH [1]: 64 g/ha
Pre-emergence activity (GR80) on SOLNI [2]: 125 g/ha
Pre-emergence activity (GR80) on AMARE [3]: 64 g/ha
Pre-emergence activity (GR80) on DATST [4]: 64 g/ha
Pre-emergence activity (GR80) on CHEAL [5]: 64 g/ha
Pre-emergence activity (GR80) on CONAR [6]: 750 g/ha
Pre-emergence activity (GR80) on PORAL [7]: 64 g/ha
Pre-emergence activity (GR80) on CIRAR [8]: 64 g/ha
Pre-emergence activity (GR80) on ECHCG [9]: 500 g/ha
Pre-emergence activity (GR80) on PANMI [10]: 125 g/ha
Pre-emergence activity (GR80) on SORHA [11]: 250 g/ha
Pre-emergence activity (GR80) on SETFA [12]: 125 g/ha
Pre-emergence activity (GR80) on PANDI [13]: 64 g/ha
Pre-emergence activity (GR80) on SORVU [14]: * (Where herbicidal activity was evident but 80% inhibition was not achieved at the highest rate tested (typically 1000 g/ha), an asterisk (*) is shown)
Pre-emergence activity (GR80) on BRAPP [15]: 500 g/ha
Pre-emergence activity (GR80) on DIGSA [16]: 64 g/ha

CC(CNC(=O)c1cccc(C(F)(F)F)c1)NC(=O)c1cccc(Cl)c1Cl (centres unmarked) [Example 50]
Pre-emergence activity (GR80) on ABUTH [1]: 750 g/ha
Pre-emergence activity (GR80) on SOLNI [2]: 125 g/ha
Pre-emergence activity (GR80) on AMARE [3]: 32 g/ha
Pre-emergence activity (GR80) on DATST [4]: 125 g/ha
Pre-emergence activity (GR80) on CHEAL [5]: 32 g/ha
Pre-emergence activity (GR80) on CONAR [6]: 250 g/ha
Pre-emergence activity (GR80) on PORAL [7]: 32 g/ha
Pre-emergence activity (GR80) on CIRAR [8]: 64 g/ha
Pre-emergence activity (GR80) on ECHCG [9]: * (Where herbicidal activity was evident but 80% inhibition was not achieved at the highest rate tested (typically 1000 g/ha), an asterisk (*) is shown)
Pre-emergence activity (GR80) on PANMI [10]: 1000 g/ha
Pre-emergence activity (GR80) on SORHA [11]: 1000 g/ha
Pre-emergence activity (GR80) on SETFA [12]: 750 g/ha
Pre-emergence activity (GR80) on PANDI [13]: 250 g/ha
Pre-emergence activity (GR80) on SORVU [14]: * (Where herbicidal activity was evident but 80% inhibition was not achieved at the highest rate tested (typically 1000 g/ha), an asterisk (*) is shown)
Pre-emergence activity (GR80) on BRAPP [15]: 500 g/ha
Pre-emergence activity (GR80) on DIGSA [16]: 125 g/ha

Cc1c(Cl)cccc1C(=O)NC(C)CNC(=O)c1cccc(C(F)(F)F)c1 (centres unmarked) [Example 51]
Pre-emergence activity (GR80) on ABUTH [1]: 250 g/ha
Pre-emergence activity (GR80) on SOLNI [2]: 125 g/ha
Pre-emergence activity (GR80) on AMARE [3]: 125 g/ha
Pre-emergence activity (GR80) on DATST [4]: 250 g/ha
Pre-emergence activity (GR80) on CHEAL [5]: 64 g/ha
Pre-emergence activity (GR80) on CONAR [6]: 1000 g/ha
Pre-emergence activity (GR80) on PORAL [7]: 64 g/ha
Pre-emergence activity (GR80) on CIRAR [8]: 125 g/ha
Pre-emergence activity (GR80) on ECHCG [9]: * (Where herbicidal activity was evident but 80% inhibition was not achieved at the highest rate tested (typically 1000 g/ha), an asterisk (*) is shown)
Pre-emergence activity (GR80) on PANMI [10]: 250 g/ha
Pre-emergence activity (GR80) on SORHA [11]: 1000 g/ha
Pre-emergence activity (GR80) on SETFA [12]: 250 g/ha
Pre-emergence activity (GR80) on PANDI [13]: 250 g/ha
Pre-emergence activity (GR80) on SORVU [14]: phyto
Pre-emergence activity (GR80) on BRAPP [15]: 500 g/ha
Pre-emergence activity (GR80) on DIGSA [16]: 64 g/ha

CC(CNC(=O)c1cccc(C(F)(F)F)c1)NC(=O)c1ccccc1Cl (centres unmarked) [Example 103]
Pre-emergence activity (GR80) on ABUTH [1]: 750 g/ha
Pre-emergence activity (GR80) on SOLNI [2]: 250 g/ha
Pre-emergence activity (GR80) on AMARE [3]: 125 g/ha
Pre-emergence activity (GR80) on DATST [4]: 500 g/ha
Pre-emergence activity (GR80) on CHEAL [5]: 500 g/ha
Pre-emergence activity (GR80) on CONAR [6]: * (Where herbicidal activity was evident but 80% inhibition was not achieved at the highest rate tested (typically 1000 g/ha), an asterisk (*) is shown)
Pre-emergence activity (GR80) on PORAL [7]: 125 g/ha
Pre-emergence activity (GR80) on CIRAR [8]: 750 g/ha
Pre-emergence activity (GR80) on ECHCG [9]: phyto
Pre-emergence activity (GR80) on PANMI [10]: 1000 g/ha
Pre-emergence activity (GR80) on SORHA [11]: 500 g/ha
Pre-emergence activity (GR80) on SETFA [12]: 500 g/ha
Pre-emergence activity (GR80) on PANDI [13]: 500 g/ha
Pre-emergence activity (GR80) on SORVU [14]: phyto
Pre-emergence activity (GR80) on BRAPP [15]: 750 g/ha
Pre-emergence activity (GR80) on DIGSA [16]: 500 g/ha

Cc1c(Cl)cccc1C(=O)NC(C)CNC(=O)c1cccc(C(F)(F)F)c1F (centres unmarked) [Example 150]
Pre-emergence activity (GR80) on ABUTH [1]: 1000 g/ha
Pre-emergence activity (GR80) on SOLNI [2]: 64 g/ha
Pre-emergence activity (GR80) on AMARE [3]: 32 g/ha
Pre-emergence activity (GR80) on DATST [4]: 32 g/ha
Pre-emergence activity (GR80) on CHEAL [5]: 32 g/ha
Pre-emergence activity (GR80) on CONAR [6]: 125 g/ha
Pre-emergence activity (GR80) on PORAL [7]: 32 g/ha
Pre-emergence activity (GR80) on CIRAR [8]: 125 g/ha
Pre-emergence activity (GR80) on ECHCG [9]: * (Where herbicidal activity was evident but 80% inhibition was not achieved at the highest rate tested (typically 1000 g/ha), an asterisk (*) is shown)
Pre-emergence activity (GR80) on PANMI [10]: 64 g/ha
Pre-emergence activity (GR80) on SORHA [11]: * (Where herbicidal activity was evident but 80% inhibition was not achieved at the highest rate tested (typically 1000 g/ha), an asterisk (*) is shown)
Pre-emergence activity (GR80) on SETFA [12]: 125 g/ha
Pre-emergence activity (GR80) on PANDI [13]: 125 g/ha
Pre-emergence activity (GR80) on SORVU [14]: phyto
Pre-emergence activity (GR80) on BRAPP [15]: * (Where herbicidal activity was evident but 80% inhibition was not achieved at the highest rate tested (typically 1000 g/ha), an asterisk (*) is shown)
Pre-emergence activity (GR80) on DIGSA [16]: 32 g/ha
